Data as given in patent publication US10206907B2, “Compounds useful for the treatment of degenerative and inflammatory diseases” (GALAPAGOS NV, priority 2008, dated 2019).
pEC50, pIC50: −log10 of the molar value.

What was measured:
[1] = target: Recombinant human JAK1 catalytic domain (Homo sapiens (Human), UniProt P23458); experiment: JAK1 inhibition assay; type: biochemical; details: semi-quantitative score
In short: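 IC50 values come from dose-response series, with each point expressed as percent inhibition of cpm. Vehicle sets full activity and 10 μM staurosporine sets background. Incorporated radioactivity counted by scintillation after washing with 75 mM phosphoric acid.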

[2] = Microsomal stability, human liver microsomes; type: in vitro ADME; details: percentage of compound remaining after 60 minutes, 3 μM compound
Description: (§1) 40 μL of deionised water was added to a well of a polypropylene Matrix 2D barcode labelled storage tube (Thermo Scientific) and pre-incubated at 37° C.
(§2) A co-factor containing MgCl2, glucose-6-phosphate and NADP+ was prepared in deionised water and placed on ice before use.
(§3) A final working solution containing liver microsomes (Xenotech of a species of interest (human, mouse, rat, dog), previously described G6PDH and co-factors was prepared and this mix was incubated for no longer than 20 minutes at room temperature.
(§4) 30 μL of the pre-heated compound dilution was added to 40 μL of pre-heated water in the Matrix tubes and 30 μL of the microsomal mix was added.
(§5) To measure percentage remaining of compound at time zero MeOH or ACN was added (1:1) to the well before adding the microsomal mix.
(§6) The samples which were not stopped are incubated at 37° C., 300 rpm and after 1 hour of incubation the reaction was stopped with MeOH or ACN (1:1).
(§7) After stopping the reaction the samples were mixed and placed on ice for 30 min to precipitate the proteins.
(§8) The samples were analyzed on LCMS with a flow rate of 1 mL/min. Solvent A was 15 mM ammonia and solvent B was methanol or acetonitrile, depending on the stop solution used. […] The percentage remaining after 1 hour incubation was calculated from time 0 and was calculated as the percentage remaining.
(§9) The data on microsomal stability are expressed as a percentage of the total amount of compound remaining after 60 minutes.

[3] = Microsomal stability, rat liver microsomes; type: in vitro ADME; details: percentage of compound remaining after 60 minutes, 3 μM compound
Description: as §1, §2, §3, §4, §5, §6, §7, §8, §9

[4] = test system: MMP13 in SW1353 cells; experiment: OSM/IL-1β signaling assay (MMP13 levels in SW1353 cells); type: cell-based; details: Homo sapiens; SW1353 cells, OSM and IL-1β triggered, MMP13 levels 48 hours after triggering; read-out: MMP13 EC50;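 note: secreted MMP13 captured by antibody, activated with APMA and its activity read by fluorescence, inhibition scaled between vehicle-treated triggered wells (0%) and untriggered wells (100%)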
[5] = test system: JAK-STAT signalling in HeLa cells; experiment: JAK-STAT signalling assay (OSM-triggered pSTAT1(2)-luciferase reporter in HeLa cells); type: cell-based; details: Homo sapiens; HeLa cells, OSM-triggered pSTAT1(2)-luciferase reporter; read-out: STAT signalling EC50
Description: HeLa cells were maintained in Dulbecco's Modified Eagle's Medium (DMEM) containing 10% heat inactivated fetal calf serum, 100 U/mL penicillin and 100 μg/mL streptomycin. HeLa cells were used at 70% confluence for transfection. 20,000 cells in 87 μL cell culture medium were transiently transfected with 40 ng pSTAT1(2)-luciferase reporter (Panomics), 8 ng of LacZ reporter as internal control reporter and 52 ng of pBSK using 0.32 μL Jet-PEI (Polyplus) as transfection reagent per well in 96-well plate format. After overnight incubation at 37° C., 10% CO2, transfection medium was removed.
40 μL of cell lysate was used to read β-galactosidase activity by adding 180 μL βGal solution (30 μl ONPG 4 mg/mL+150 μL β-Galactosidase buffer (0.06 M Na2HPO4, 0.04 M NaH2PO4, 1 mM MgCl2)) for 20 min.
Luciferase activity was measured using 40 μL cell lysate plus 40 μl of Steadylite® as described by the manufacturer (Perkin Elmer), on the Envision (Perkin Elmer).
The positive and negative controls were used to calculate z’ and ‘percent inhibition’ (PIN) values.
PIN values were plotted for compounds tested in dose-response and EC50 values were derived.

[6] = target: Recombinant human JAK2 catalytic domain (Homo sapiens (Human), UniProt O60674); experiment: JAK2 inhibition assay; type: biochemical; details: semi-quantitative score
In short: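 Activity was taken as vehicle cpm minus cpm with 10 μM staurosporine, and inhibition was expressed on that scale. Incubation was 90 min at 30 °C, followed by acid quench, phosphoric acid washes and Microscint counting. Compounds were tested as dose series to obtain IC50.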

Chain of Recombinant human JAK2 catalytic domain (O60674 808-1132): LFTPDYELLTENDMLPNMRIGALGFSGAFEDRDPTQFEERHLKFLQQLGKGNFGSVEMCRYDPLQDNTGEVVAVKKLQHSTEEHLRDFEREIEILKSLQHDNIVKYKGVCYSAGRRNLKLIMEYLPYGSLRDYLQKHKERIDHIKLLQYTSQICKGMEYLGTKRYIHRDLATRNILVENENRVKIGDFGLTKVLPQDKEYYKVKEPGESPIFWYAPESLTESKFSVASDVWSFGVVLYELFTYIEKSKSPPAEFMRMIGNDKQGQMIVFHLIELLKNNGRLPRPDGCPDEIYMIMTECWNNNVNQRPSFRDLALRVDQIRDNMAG
Chain of Recombinant human JAK1 catalytic domain (P23458 850-1154): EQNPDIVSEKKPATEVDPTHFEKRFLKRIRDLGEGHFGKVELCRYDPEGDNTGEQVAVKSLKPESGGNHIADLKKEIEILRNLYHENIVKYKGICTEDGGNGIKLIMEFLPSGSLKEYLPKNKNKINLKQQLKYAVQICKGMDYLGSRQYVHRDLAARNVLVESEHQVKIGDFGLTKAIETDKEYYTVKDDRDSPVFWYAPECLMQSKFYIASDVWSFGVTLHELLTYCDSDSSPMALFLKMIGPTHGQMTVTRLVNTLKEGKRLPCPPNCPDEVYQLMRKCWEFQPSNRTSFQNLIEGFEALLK

| SMILES | pIC50 [1] | Microsomal Stability Human (%) [2] | Microsomal Stability Rat (%) [3] | pEC50 [4] | pEC50 [5] | pIC50 [6] |
| --- | --- | --- | --- | --- | --- | --- |
| O=C(NC1CC1)c1ccc(-c2cccc3nc(NC(=O)C4CC4)nn23)cc1 [Compound 11, 4-(2-(cyclopropanecarboxamido)-[1,2,4]triazolo[1,5-a]pyridin-5-yl)-N-cyclopropylbenzamide] | 6.30 to 7.00 | **** (**** 76-100) | **** (**** 76-100) |  |  |  |
| O=C(Nc1ccc(-c2cccc3nc(NC(=O)C4CC4)nn23)cc1)c1ccc(C(F)(F)F)cc1 [Compound 22, N-(4-(2-(cyclopropanecarboxamido)-[1,2,4]triazolo[1,5-a]pyridin-5-yl)phenyl)-4-(trifluoromethyl)benzamide] | 6.30 to 7.00 |  |  | < 6.00 | < 6.00 | 6.30 to 7.00 |
| O=C(NC1CCCCC1)c1ccc(-c2cccc3nc(NC(=O)C4CC4)nn23)cc1 [Compound 26, N-cyclohexyl-4-(2-(cyclopropanecarboxamido)-[1,2,4]triazolo[1,5-a]pyridin-5-yl)benzamide] | 6.30 to 7.00 |  |  | < 6.00 | < 6.00 | 6.30 to 7.00 |
| CC(C)(C)C1CCN(C(=O)c2ccc(-c3cccc4nc(NC(=O)C5CC5)nn34)cc2)CC1 [Compound 27, N-(5-(4-(4-tert-butylpiperidine-1-carbonyl)phenyl)-[1,2,4]triazolo[1,5-a]pyridin-2-yl)cyclopropanecarboxamide] | 6.30 to 7.00 |  |  | < 6.00 | < 6.00 | 6.00 to 6.30 |
| O=C(Nc1nc2cccc(-c3ccc(C(=O)N4CCCNCC4)cc3)n2n1)C1CC1 [Compound 28, N-(5-(4-(1,4-diazepane-1-carbonyl)phenyl)-[1,2,4]triazolo[1,5-a]pyridin-2-yl)cyclopropanecarboxamide] | 6.30 to 7.00 |  |  | < 6.00 | < 6.00 | < 6.00 |
| COc1ccc(CN(C)C(=O)c2ccc(-c3cccc4nc(NC(=O)C5CC5)nn34)cc2)cc1 [Compound 31, 4-(2-(cyclopropanecarboxamido)-[1,2,4]triazolo[1,5-a]pyridin-5-yl)-N-(4-methoxybenzyl)-N-methylbenzamide] | > 7.00 |  |  | < 6.00 | < 6.00 | 6.30 to 7.00 |
| CN(Cc1ccccc1)c1ccc(-c2cccc3nc(NC(=O)C4CC4)nn23)cc1 [Compound 157, N-(5-(4-(benzyl(methyl)amino)phenyl)-[1,2,4]triazolo[1,5-a]pyridin-2-yl)cyclopropanecarboxamide] | > 7.00 | * (* 0-25) | * (* 0-25) |  | < 6.00 |  |
| COc1ccc(NC(=O)c2ccc(-c3cccc4nc(NC(=O)C5CC5)nn34)cc2)cn1 [Compound 203, 4-[2-(Cyclopropanecarbonyl-amino)-[1,2,4]triazolo[1,5-a]pyridin-5-yl]-N-(6-methoxy-pyridin-3-yl)-benzamide] | > 7.00 | * (* 0-25) | *** (*** 51-75) |  | < 6.00 | 6.30 to 7.00 |
| O=C(Nc1ccc(N2CCOCC2)nc1)c1ccc(-c2cccc3nc(NC(=O)C4CC4)nn23)cc1 [Compound 204, 4-[2-(Cyclopropanecarbonyl-amino)-[1,2,4]triazolo[1,5-a]pyridin-5-yl]-N-(6-morpholin-4-yl-pyridin-3-yl)-benzamide] | > 7.00 | * (* 0-25) | * (* 0-25) |  | < 6.00 |  |
| O=C(Nc1cccnn1)c1ccc(-c2cccc3nc(NC(=O)C4CC4)nn23)cc1 [Compound 221, 4-[2-(Cyclopropanecarbonyl-amino)-[1,2,4]triazolo[1,5-a]pyridin-5-yl]-N-pyridazin-3-yl-benzamide] | > 7.00 |  |  | < 6.00 | < 6.00 | 6.30 to 7.00 |
| O=C(Nc1nc2cccc(-c3ccc(CNc4cccnn4)cc3)n2n1)C1CC1 [Compound 222, Cyclopropanecarboxylic acid {5-[4-(pyridazin-3-ylaminomethyl)-phenyl]-[1,2,4]triazolo[1,5-a]pyridin-2-yl}-amide] | > 7.00 |  |  | < 6.00 | < 6.00 | 6.30 to 7.00 |
| O=C(Nc1nc2cccc(-c3ccc(CNc4cccnc4)cc3)n2n1)C1CC1 [Compound 223, Cyclopropanecarboxylic acid {5-[4-(pyridin-3-ylaminomethyl)-phenyl]-[1,2,4]triazolo[1,5-a]pyridin-2-yl}-amide] | > 7.00 |  |  | < 6.00 | < 6.00 | 6.00 to 6.30 |
| O=C(Nc1nc2cccc(-c3ccc(CN4CCOC(c5ccccc5)C4)cc3)n2n1)C1CC1 (centres unmarked) [Compound 231] | > 7.00 |  |  | 6.30 to 9.00 | < 6.00 | 6.30 to 7.00 |
| O=C(Nc1nc2cccc(-c3ccc(COc4ccccc4)cc3)n2n1)C1CC1 [Compound 238, Cyclopropanecarboxylic acid [5-(4-phenoxymethyl-phenyl)-[1,2,4]triazolo[1,5-a]pyridin-2-yl]-amide] | > 7.00 |  |  | < 6.00 | 6.00 to 6.30 | > 7.00 |
| O=C(Nc1nc2cccc(-c3ccc(C(=O)N4CCCC(O)C4)cc3)n2n1)C1CC1 (centres unmarked) [Compound 270, Cyclopropanecarboxylic acid {5-[4-(3-hydroxy-piperidine-1-carbonyl)-phenyl]-[1,2,4]triazolo[1,5-a]pyridin-2-yl)-amide] | > 7.00 |  |  | < 6.00 | < 6.00 | 6.30 to 7.00 |
| NC(=O)C1CCCCN1C(=O)c1ccc(-c2cccc3nc(NC(=O)C4CC4)nn23)cc1 (centres unmarked) [Compound 275, 1-{4-[2-(Cyclopropanecarbonyl-amino)-[1,2,4]triazolo[1,5-a]pyridin-5-yl]-benzoyl}-piperidine-2-carboxylic acid amide] | > 7.00 |  |  | < 6.00 | < 6.00 | 6.30 to 7.00 |
| O=C(Nc1nc2cccc(-c3ccc(C(=O)N4CCCC(CO)C4)cc3)n2n1)C1CC1 (centres unmarked) [Compound 276, Cyclopropanecarboxylic acid {5-[4-(3-hydroxymethyl-piperidine-1-carbonyl)-phenyl]-[1,2,4]triazolo[1,5-a]pyridin-2-yl}-amide] | > 7.00 |  |  | < 6.00 | < 6.00 | 6.30 to 7.00 |
| CC(=O)NC1CN(C(=O)c2ccc(-c3cccc4nc(NC(=O)C5CC5)nn34)cc2)C1 [Compound 287, Cyclopropanecarboxylic acid {5-[4-(3-acetylamino-azetidine-1-carbonyl)-phenyl]-[1,2,4]triazolo[1,5-a]pyridin-2-yl}-amide] | > 7.00 |  |  | < 6.00 | < 6.00 |  |
| CN(C)C1CCN(C(=O)c2ccc(-c3cccc4nc(NC(=O)C5CC5)nn34)cc2)C1 (centres unmarked) [Compound 289, Cyclopropanecarboxylic acid {5-[4-(3-dimethylamino-pyrrolidine-1-carbonyl)-phenyl]-[1,2,4]triazolo[1,5-a]pyridin-2-yl}-amide] | > 7.00 |  |  | < 6.00 | < 6.00 | 6.00 to 6.30 |
| O=C(Nc1nc2cccc(-c3ccc(C(=O)N4CCC(COc5cccnc5)CC4)cc3)n2n1)C1CC1 [Compound 292, Cyclopropanecarboxylic acid (5-{4-[4-(pyridin-3-yloxymethyl)-piperidine-1-carbonyl]-phenyl}-[1,2,4]triazolo[1,5-a]pyridin-2-yl)-amide] | > 7.00 |  |  | < 6.00 | < 6.00 | 6.30 to 7.00 |
| O=C(Nc1nc[nH]n1)c1ccc(-c2cccc3nc(NC(=O)C4CC4)nn23)cc1 [Compound 331, 4-[2-(Cyclopropanecarbonyl-amino)-[1,2,4]triazolo[1,5-a]pyridin-5-yl]-N-(1H-1,2,4-triazol-3-yl)-benzamide] | 6.30 to 7.00 | * (* 0-25) | * (* 0-25) |  |  | > 7.00 |
